# Test results published in patent publication US20230050202A1, “ENGINEERED FIBROBLASTS AS CELL THERAPY TO TREAT CANCER VIA TUMOR STROMA STABILIZATION” (The Johns Hopkins University, priority 2020, published 2023).
# Key:
# [1] = tested on: FSP1 expression in NIH-3T3 fibroblasts; experiment: FSP1 immunofluorescence in fibroblasts, 67NR spheroid coculture; format: cell-based, mouse
# Protocol: (§1) Spheroid encapsulation with fibroblasts: for coculture, 40 μL collagen was used to re-suspend 2×10^5 NIH-3T3 cells after centrifugation. The fibroblasts-containing liquid collagen was then added to the glass bottom well where a spheroid was placed in its center. The mixture was allowed to gel at room temperature for 2 hours. 2 mL DMEM was then added into the well. The embedded spheroid was incubated for at least 1 day or longer, as indicated in the text, before being used.
# (§2) ECM crosslinking. ECM-encapsulated 67NR spheroids were prepared as previously described. After 1-hour incubation, genipin (Sigma-Aldrich, G4796) was mixed with DMEM to reach final concertation of 0.5 mM and 1 mM. The solutions were then added to the samples and incubated for 24 hours. The DMSO-added DMEM were used as a control for the experiment. The samples were then washed with PBS for further usage.
# (§3) Immunofluorescence. Samples were fixed in 4% paraformaldehyde for 30 minutes, permeabilized with 0.1% Triton X100 (Sigma-Aldrich, X100) in PBS for 30 minutes. PBS containing 2% bovine serum albumin (Sigma-Aldrich, A7906) and 0.1% Tween-20 (Promega) was then added to sample for 30 minutes for blocking. All antibody was diluted in PBS with 1% bovine serum albumin. The fixed cells were incubated with the primary antibody for overnight at 4° C., followed by washing using PBS for 3 times, and then incubated with the secondary antibody for 2 hours. After washing, the samples were immersed in PBS and stored in 4° C. for further usage. […]
# (§4) Fibril coherence analysis was performed using Quantitative orientation measurement in orientationJ21. The immunostaining was quantified using Fiji/ImageJ software. […]
# (§5) where II and AI denotes the fluorescence intensity, and the area of the cell, respectively. I2 and A2 denotes the fluorescence intensity, and the area of the larger region encompassing the cell and the surrounding background, respectively. […] The corrected fluorescence intensity was then recorded for each cell.
# 67NR-embedded ECM [2] = experiment: Line FRAP diffusion enhancement time in spheroid-embedded ECM; format: cell-based, mouse; conditions: 0.5 mM genipin-treated 67NR-embedded ECM, 2,000 kDa FITC-dextran
# Protocol: ECM crosslinking. ECM-encapsulated 67NR spheroids were prepared as previously described. After 1-hour incubation, genipin (Sigma-Aldrich, G4796) was mixed with DMEM to reach final concertation of 0.5 mM and 1 mM. The solutions were then added to the samples and incubated for 24 hours. The DMSO-added DMEM were used as a control for the experiment. The samples were then washed with PBS for further usage. Fluorescence recovery after photobleaching. 10 mg/mL of 2,000 kDa fluorescein isothiocyanate (FITC)-Dextran (SigmaAldrich, FD2000S) was added to the collagen gel and incubated for 30 minutes at 37° C. […] The characteristic fluorescence recovery times τD, when 64% of the fluorescence intensity is recovered, was calculated based on the fitted curve. […] Line fluorescence recovery was performed after photobleaching (FRAP) to measure the diffusivity of the spheroid-embedded ECM. […] To assess whether there is enhancement in diffusion rates in the radial direction from the spheroid, the metric “diffusion enhancement time (τDE)” was introduced, defined as the difference in the characteristic fluorescence recovery times τD, when 64% of the fluorescence intensity is recovered, between the two stripes: […]) where rD(radial) represents the rD measured in the radial direction, and rD(orthogonal) in the corresponding orthogonal direction. […]
# 67NR spheroids = experiment: Cytotoxicity in genipin-treated 67NR-embedded ECM; format: cell-based, mouse; conditions: 0.5 mM genipin, 24 hours
# Protocol: as §2
# The corollary to the observation that ECM fibril alignment promotes CAF induction in the coculture is that suppressing such alignment will attenuate it. To confirm this, genipin, a biocompatible crosslinking reagent, was used to suppress the fibril reorganization. The optimal genipin concentration was identified to be 0.5 mM. […] Yet the fibril alignment was suppressed by 28% (FIGS. 5A-5B). […] Though ECM crosslinking might lead to CAF induction because of ECM stiffening, it was not the case in these experiments. […] Having had established the optimal genipin concentration to suppress fibril alignment, it was used to evaluate whether CAF induction in cocultured fibroblasts would be attenuated. […] To exclude the possibility that genipin directly downregulates CAF markers in fibroblasts, their expression was evaluated in genipin-treated samples containing fibroblasts only.
# [3] = tested on: αSMA expression in NIH-3T3 fibroblasts; experiment: αSMA immunofluorescence in fibroblasts, 67NR spheroid coculture; format: cell-based, mouse
# Protocol: as §1, §2, §3, §4, §5
# 67NR-embedded ECM [4] = experiment: ECM fibril alignment (coherence analysis) in 67NR spheroid-embedded ECM; format: cell-based, mouse; conditions: 0.5 mM genipin, 24 hours, vs control
# Protocol: Spheroid encapsulation without fibroblast: after the spheroid adhered to the glass bottom well via collagen, the liquid collagen kept at the 4° C. was poured to the well to embed the spheroid. 40 μL liquid collagen was slowly pipetted into the well and allowed to gel for 2 hours at room temperature. 2 mL DMEM was then added into the well. The embedded spheroid was incubated for at least 1 day or longer before being used.
# as §2, §4
# To determine whether 67NR spheroid alone is sufficient to align the fibrils, time-lapse imaging was performed by embedding EpH4-Ev and 67NR spheroids in ECM without fibroblasts. […] To quantify the degree of fibril alignment, coherence analysis 21 was performed. […] Fibril orientations within and outside the 300-μm perimeter from the spheroid were evaluated separately.
# [5] = Rheological measurement (LAOS) of crosslinked collagen gel; format: physicochemical
# Protocol: ECM crosslinking. ECM-encapsulated 67NR spheroids were prepared as previously described. After 1-hour incubation, genipin (Sigma-Aldrich, G4796) was mixed with DMEM to reach final concertation of 0.5 mM and 1 mM. The solutions were then added to the samples and incubated for 24 hours. The DMSO-added DMEM were used as a control for the experiment. The samples were then washed with PBS for further usage. Elastic modulus measurement. The Large […] Oscillatory Shear (LAOS) was used to test the shear modulus of the crosslinked and uncrosslinked collagen gel. The collagen gel was prepared in disks and subjected to sinusoidal rotational deformation. The amplitude of the applied strain (y) to the material was increased at a fixed rotational frequency (w) of 1 rad/s. The analysis utilized a viscoelastic stress response model wherein the shear stress is computed as a function of strain ranging from 0.01%-15%. The Fourier Transform method was utilized to quantify the nonlinear stress response of ECM samples under increasingly large angular shear strain. LAOS was performed using an Anton Paar Modular Compact Rheometer (MCR 302) with a parallel plate (diameter 8 mm) at 37° C. The measurement values of the shear modulus were then used obtain the elastic modulus by the formula: E=2G(1+v) where E is elastic modulus, G is shear modulus, and v is the Poisson ratio. The Poisson ratio was assumed to be 0.5.
# [6] = tested on: αSMA expression in human lung fibroblasts (MRCS); experiment: TGFβ1-mediated CAF induction (αSMA expression) in human lung fibroblasts; format: cell-based; conditions: control fibroblasts, TGFβ1 10 ng/mL, vs non-treated group, p<0.001
# Source text: Prototype STAR fibroblasts were generated by introducing the dominant negative form of RhoA (RhoA^T19N) into to human lung fibroblasts (MRCS) to reduce RhoA signaling, a key mediator for CAF phenotypes.
# [7] = fibroblast-only samples after genipin treatment
# [8] = genipin-treated cocultures, fibroblasts outside 300-μm perimeter, treatment vs control
# [9] = genipin-treated cocultures, fibroblasts within the 300-μm perimeter from the spheroid
Molecule,"FSP1 expression [1, 7]","FSP1 expression decreased [1, 8] [%]","FSP1 expression reduced [1, 9] [%]",rDE value (diffusion enhancement time) (67NR-embedded ECM [2]),cytotoxicity (67NR spheroids),"αSMA expression [3, 7]","αSMA expression decreased [3, 8] [%]","αSMA expression reduced [3, 9] [%]",fibril alignment suppressed (67NR-embedded ECM [4]) [%],"ECM stiffening ([5]; 0.5 mM genipin, 24 hours)",shear moduli vs uncrosslinked control ([5]; 0.5 mM genipin-treated ECM),elastic modulus of the ECM (mean±s.d.) ([5]; ECM treated with 0.5 mM genipin) [Pa],ECM became stiffer ([5]; ECM treated with 1 mM genipin vs un-crosslinked ECM) [%],αSMA expression increase [6] [%]
COC(=O)C1=CO[C@@H](O)[C@@H]2C(CO)=CC[C@H]12 [genipin],remained unchanged,36,23,decreased to a negligible level,no observable cytotoxicity,remained unchanged,39,33,28,negligible ECM stiffening,comparable,755±163,29,–
TGFβ1: cytokine used at 10 ng/mL to induce CAF phenotype in fibroblasts,–,–,–,–,–,–,–,–,–,–,–,–,–,50
